Reference: ChEMBL document CHEMBL1155511, “Discovery of a new potent bisamide FMS kinase inhibitor” (Bioorg Med Chem Lett, 2010)
pIC50: −log10 of the molar value.

Tests used:
[1] = molecular target: Ribosomal protein S6 kinase beta-1 (Homo sapiens) (UniProt P23443); assay: Inhibition of p70S6K at 1 uM
[2] = molecular target: Serine/threonine-protein kinase PAK 2 (Homo sapiens) (UniProt Q13177); assay: Inhibition of PAK2 at 1 uM
[3] = molecular target: Ephrin type-A receptor 1 (Homo sapiens) (UniProt P21709); assay: Inhibition of EPHA1 at 1 uM
[4] = molecular target: [Pyruvate dehydrogenase (acetyl-transferring)] kinase isozyme 1, mitochondrial (Homo sapiens) (UniProt Q15118); assay: Inhibition of PDK1 at 1 uM
[5] = molecular target: Proto-oncogene tyrosine-protein kinase Src (Homo sapiens) (UniProt P12931); assay: Inhibition of c-SRC at 1 uM
[6] = molecular target: Cyclin-dependent kinase 5/CDK5 activator 1 (Homo sapiens) (UniProt Q00535+Q15078); assay: Inhibition of CDK5/p25 at 1 uM; format: protein-complex assay
[7] = molecular target: Mitogen-activated protein kinase kinase kinase 9 (Homo sapiens) (UniProt P80192); assay: Inhibition of MLK1 at 1 uM
[8] = molecular target: Proto-oncogene tyrosine-protein kinase ROS (Homo sapiens) (UniProt P08922); assay: Inhibition of ROS1 at 1 uM
[9] = Inhibition of PKA at 1 uM
[10] = molecular target: Mast/stem cell growth factor receptor Kit (Homo sapiens) (UniProt P10721); assay: Inhibition of cKIT1 at 1 uM
[11] = molecular target: Protein kinase C alpha type (Homo sapiens) (UniProt P17252); assay: Inhibition of PKCalpha at 1 uM
[12] = molecular target: Serine/threonine-protein kinase Chk1 (Homo sapiens) (UniProt O14757); assay: Inhibition of CHK1 at 1 uM
[13] = molecular target: T1, Macrophage colony-stimulating factor 1 receptor (Homo sapiens, UniProt P07333); assay: Inhibition of FMS
[14] = molecular target: T1, Macrophage colony-stimulating factor 1 receptor; assay: Inhibition of FMS at 1 uM
[15] = molecular target: Serine/threonine-protein kinase MARK1 (Homo sapiens) (UniProt Q9P0L2); assay: Inhibition of MARK1 at 1 uM
[16] = molecular target: Serine/threonine-protein kinase pim-1 (Homo sapiens) (UniProt P11309); assay: Inhibition of PIM1 at 1 uM
[17] = molecular target: Tyrosine-protein kinase JAK3 (Homo sapiens) (UniProt P52333); assay: Inhibition of JAK3 at 1 uM
[18] = molecular target: Tyrosine-protein kinase Tec (Homo sapiens) (UniProt P42680); assay: Inhibition of TEC at 1 uM
[19] = molecular target: Mitogen-activated protein kinase 14 (Homo sapiens) (UniProt Q16539); assay: Inhibition of SAPK2A at 1 uM
[20] = molecular target: Ribosomal protein S6 kinase alpha-1 (Homo sapiens) (UniProt Q15418); assay: Inhibition of RSK1 at 1 uM
[21] = molecular target: Protein-tyrosine kinase 2-beta (Homo sapiens) (UniProt Q14289); assay: Inhibition of PYK2 at 1 uM
[22] = molecular target: Insulin receptor (Homo sapiens) (UniProt P06213); assay: Inhibition of IR at 1 uM
[23] = molecular target: Glycogen synthase kinase-3 beta (Homo sapiens) (UniProt P49841); assay: Inhibition of GSK3-beta at 1 uM
[24] = Inhibition of PKBalpha; conditions: concentration not given here
[25] = molecular target: Dual specificity mitogen-activated protein kinase kinase 1 (Homo sapiens) (UniProt Q02750); assay: Inhibition of MEK1 at 1 uM
[26] = molecular target: Serine/threonine-protein kinase PLK1 (Homo sapiens) (UniProt P53350); assay: Inhibition of PLK1 at 1 uM
[27] = molecular target: ALK tyrosine kinase receptor (Homo sapiens) (UniProt Q9UM73); assay: Inhibition of ALK at 1 uM
[28] = molecular target: Insulin-like growth factor 1 receptor (Homo sapiens) (UniProt P08069); assay: Inhibition of IGF1R at 1 uM
[29] = molecular target: Tyrosine-protein kinase BTK (Homo sapiens) (UniProt Q06187); assay: Inhibition of BTK at 1 uM
[30] = molecular target: Mitogen-activated protein kinase 8 (Homo sapiens) (UniProt P45983); assay: Inhibition of JNK1alpha1 at 1 uM
[31] = molecular target: Tyrosine-protein kinase ABL1 (Homo sapiens) (UniProt P00519); assay: Inhibition of ABL1 at 1 uM
[32] = molecular target: Tyrosine-protein kinase Lck (Homo sapiens) (UniProt P06239); assay: Inhibition of LCK at 1 uM
[33] = molecular target: Rho-associated protein kinase 1 (Homo sapiens) (UniProt Q13464); assay: Inhibition of ROCK1 at 1 uM
[34] = molecular target: Calcium/calmodulin-dependent protein kinase type 1 (Homo sapiens) (UniProt Q14012); assay: Inhibition of CamK1 at 1 uM
[35] = molecular target: Tyrosine-protein kinase SYK (Homo sapiens) (UniProt P43405); assay: Inhibition of SYK at 1 uM
[36] = molecular target: Serine/threonine-protein kinase mTOR (Homo sapiens) (UniProt P42345); assay: Inhibition of mTOR at 1 uM
[37] = molecular target: Tyrosine-protein kinase Fyn (Homo sapiens) (UniProt P06241); assay: Inhibition of FYN at 1 uM
[38] = molecular target: T2, Vascular endothelial growth factor receptor 2 (Homo sapiens, UniProt P35968); assay: Inhibition of KDR
[39] = molecular target: Aurora kinase A (Homo sapiens) (UniProt O14965); assay: Inhibition of Aurora A at 1 uM
[40] = molecular target: Fibroblast growth factor receptor 1 (Homo sapiens) (UniProt P11362); assay: Inhibition of FGFR1 at 1 uM
[41] = molecular target: Homeodomain-interacting protein kinase 2 (Homo sapiens) (UniProt Q9H2X6); assay: Inhibition of HIPK2 at 1 uM
[42] = molecular target: Receptor-type tyrosine-protein kinase FLT3 (Homo sapiens) (UniProt P36888); assay: Inhibition of FLT3 at 1 uM
[43] = molecular target: Proto-oncogene tyrosine-protein kinase receptor Ret (Homo sapiens) (UniProt P07949); assay: Inhibition of RET at 1 uM
[44] = molecular target: T2, Vascular endothelial growth factor receptor 2; assay: Inhibition of KDR at 1 uM
[45] = molecular target: Epidermal growth factor receptor (Homo sapiens) (UniProt P00533); assay: Inhibition of EGFR at 1 uM
[46] = molecular target: Inhibitor of nuclear factor kappa-B kinase subunit beta (Homo sapiens) (UniProt O14920); assay: Inhibition of IKK-beta at 1 uM

T2 sequence (P35968 whole entry): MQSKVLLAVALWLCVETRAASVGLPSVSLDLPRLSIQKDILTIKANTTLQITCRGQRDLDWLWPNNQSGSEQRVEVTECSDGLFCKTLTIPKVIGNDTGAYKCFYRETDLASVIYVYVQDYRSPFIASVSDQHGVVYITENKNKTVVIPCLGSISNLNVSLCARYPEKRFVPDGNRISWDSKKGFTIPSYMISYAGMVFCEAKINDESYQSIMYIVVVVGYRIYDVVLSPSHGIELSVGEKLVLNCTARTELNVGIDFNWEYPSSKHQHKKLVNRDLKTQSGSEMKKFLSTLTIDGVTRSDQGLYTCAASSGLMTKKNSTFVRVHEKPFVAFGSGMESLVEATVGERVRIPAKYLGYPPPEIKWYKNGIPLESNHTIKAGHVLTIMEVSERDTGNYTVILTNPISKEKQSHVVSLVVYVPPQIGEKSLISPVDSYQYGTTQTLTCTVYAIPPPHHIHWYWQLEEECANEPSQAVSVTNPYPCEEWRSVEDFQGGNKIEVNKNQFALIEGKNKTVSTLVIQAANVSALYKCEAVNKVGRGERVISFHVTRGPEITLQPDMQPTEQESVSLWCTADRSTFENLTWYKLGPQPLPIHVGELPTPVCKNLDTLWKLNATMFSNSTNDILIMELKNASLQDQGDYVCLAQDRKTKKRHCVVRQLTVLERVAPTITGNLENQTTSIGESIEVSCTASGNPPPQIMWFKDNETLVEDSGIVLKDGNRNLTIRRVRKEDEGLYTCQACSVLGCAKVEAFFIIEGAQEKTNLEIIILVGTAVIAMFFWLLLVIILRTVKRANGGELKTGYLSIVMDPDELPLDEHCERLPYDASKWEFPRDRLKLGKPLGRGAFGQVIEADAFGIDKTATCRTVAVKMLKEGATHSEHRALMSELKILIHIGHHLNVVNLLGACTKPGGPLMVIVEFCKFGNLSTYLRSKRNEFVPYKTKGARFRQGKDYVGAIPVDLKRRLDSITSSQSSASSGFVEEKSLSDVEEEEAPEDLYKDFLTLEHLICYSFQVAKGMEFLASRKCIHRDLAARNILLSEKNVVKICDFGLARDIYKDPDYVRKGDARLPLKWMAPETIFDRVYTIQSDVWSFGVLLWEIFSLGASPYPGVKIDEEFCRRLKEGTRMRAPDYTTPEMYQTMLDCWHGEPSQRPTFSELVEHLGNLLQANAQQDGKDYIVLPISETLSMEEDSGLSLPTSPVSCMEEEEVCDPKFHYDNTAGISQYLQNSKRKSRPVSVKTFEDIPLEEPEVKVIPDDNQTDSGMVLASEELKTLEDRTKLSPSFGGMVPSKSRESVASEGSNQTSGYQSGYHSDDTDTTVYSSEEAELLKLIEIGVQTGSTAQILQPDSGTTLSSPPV
T1 sequence (P07333 whole entry, looked up): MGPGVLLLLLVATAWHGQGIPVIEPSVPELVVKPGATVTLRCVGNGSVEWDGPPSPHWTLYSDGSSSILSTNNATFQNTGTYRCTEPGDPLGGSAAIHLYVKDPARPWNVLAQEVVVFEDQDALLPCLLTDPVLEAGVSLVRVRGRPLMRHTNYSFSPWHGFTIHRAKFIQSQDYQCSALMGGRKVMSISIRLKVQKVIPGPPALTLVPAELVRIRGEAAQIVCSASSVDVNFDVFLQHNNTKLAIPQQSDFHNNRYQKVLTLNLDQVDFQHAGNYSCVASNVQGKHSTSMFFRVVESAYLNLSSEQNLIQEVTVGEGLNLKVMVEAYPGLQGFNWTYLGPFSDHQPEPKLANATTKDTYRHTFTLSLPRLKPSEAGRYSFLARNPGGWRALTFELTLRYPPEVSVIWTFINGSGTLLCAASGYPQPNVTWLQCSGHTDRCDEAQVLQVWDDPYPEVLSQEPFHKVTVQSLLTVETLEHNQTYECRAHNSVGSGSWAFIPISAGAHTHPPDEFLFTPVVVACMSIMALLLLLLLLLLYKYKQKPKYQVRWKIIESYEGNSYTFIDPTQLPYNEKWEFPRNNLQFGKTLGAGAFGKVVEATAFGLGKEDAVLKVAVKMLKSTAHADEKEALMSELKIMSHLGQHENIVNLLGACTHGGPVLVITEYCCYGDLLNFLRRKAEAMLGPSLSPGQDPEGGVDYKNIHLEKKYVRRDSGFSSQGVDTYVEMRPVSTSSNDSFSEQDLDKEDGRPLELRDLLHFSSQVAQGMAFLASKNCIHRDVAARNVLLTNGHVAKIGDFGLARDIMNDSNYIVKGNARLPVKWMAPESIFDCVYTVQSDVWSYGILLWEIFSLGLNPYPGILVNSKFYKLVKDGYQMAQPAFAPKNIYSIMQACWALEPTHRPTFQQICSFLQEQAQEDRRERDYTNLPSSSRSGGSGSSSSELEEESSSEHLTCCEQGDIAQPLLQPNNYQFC
Chain of Tyrosine-protein kinase Tec (Homo sapiens) (P42680 whole entry): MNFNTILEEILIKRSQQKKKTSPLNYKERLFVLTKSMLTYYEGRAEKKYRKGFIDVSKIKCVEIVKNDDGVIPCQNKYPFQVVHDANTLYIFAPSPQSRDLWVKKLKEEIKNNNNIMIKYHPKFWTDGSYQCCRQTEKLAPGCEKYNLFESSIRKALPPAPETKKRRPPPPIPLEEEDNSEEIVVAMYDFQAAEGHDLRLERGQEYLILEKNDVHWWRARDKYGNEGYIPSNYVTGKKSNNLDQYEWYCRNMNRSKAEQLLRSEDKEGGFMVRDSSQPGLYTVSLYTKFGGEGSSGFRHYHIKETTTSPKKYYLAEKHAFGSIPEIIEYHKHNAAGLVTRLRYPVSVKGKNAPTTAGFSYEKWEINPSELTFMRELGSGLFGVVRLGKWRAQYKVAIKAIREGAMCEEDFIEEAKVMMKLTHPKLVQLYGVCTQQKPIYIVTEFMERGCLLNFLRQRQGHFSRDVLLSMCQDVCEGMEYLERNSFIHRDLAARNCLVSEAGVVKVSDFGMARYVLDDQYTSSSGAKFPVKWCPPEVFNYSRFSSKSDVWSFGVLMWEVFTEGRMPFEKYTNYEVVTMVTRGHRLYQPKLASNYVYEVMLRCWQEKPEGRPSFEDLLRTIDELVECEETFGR
Chain of Calcium/calmodulin-dependent protein kinase type 1 (Homo sapiens) (Q14012 whole entry, looked up): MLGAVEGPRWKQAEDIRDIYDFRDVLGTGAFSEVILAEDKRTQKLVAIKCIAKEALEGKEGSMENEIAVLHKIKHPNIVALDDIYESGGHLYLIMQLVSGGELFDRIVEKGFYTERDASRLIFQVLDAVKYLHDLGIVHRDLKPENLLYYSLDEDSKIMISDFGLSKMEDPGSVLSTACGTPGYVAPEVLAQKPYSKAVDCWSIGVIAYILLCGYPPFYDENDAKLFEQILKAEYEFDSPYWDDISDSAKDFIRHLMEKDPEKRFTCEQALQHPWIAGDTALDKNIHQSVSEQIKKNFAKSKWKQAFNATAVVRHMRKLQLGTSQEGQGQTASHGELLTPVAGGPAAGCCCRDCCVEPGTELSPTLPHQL
Chain of Insulin-like growth factor 1 receptor (Homo sapiens) (P08069 31-736 limits assumed): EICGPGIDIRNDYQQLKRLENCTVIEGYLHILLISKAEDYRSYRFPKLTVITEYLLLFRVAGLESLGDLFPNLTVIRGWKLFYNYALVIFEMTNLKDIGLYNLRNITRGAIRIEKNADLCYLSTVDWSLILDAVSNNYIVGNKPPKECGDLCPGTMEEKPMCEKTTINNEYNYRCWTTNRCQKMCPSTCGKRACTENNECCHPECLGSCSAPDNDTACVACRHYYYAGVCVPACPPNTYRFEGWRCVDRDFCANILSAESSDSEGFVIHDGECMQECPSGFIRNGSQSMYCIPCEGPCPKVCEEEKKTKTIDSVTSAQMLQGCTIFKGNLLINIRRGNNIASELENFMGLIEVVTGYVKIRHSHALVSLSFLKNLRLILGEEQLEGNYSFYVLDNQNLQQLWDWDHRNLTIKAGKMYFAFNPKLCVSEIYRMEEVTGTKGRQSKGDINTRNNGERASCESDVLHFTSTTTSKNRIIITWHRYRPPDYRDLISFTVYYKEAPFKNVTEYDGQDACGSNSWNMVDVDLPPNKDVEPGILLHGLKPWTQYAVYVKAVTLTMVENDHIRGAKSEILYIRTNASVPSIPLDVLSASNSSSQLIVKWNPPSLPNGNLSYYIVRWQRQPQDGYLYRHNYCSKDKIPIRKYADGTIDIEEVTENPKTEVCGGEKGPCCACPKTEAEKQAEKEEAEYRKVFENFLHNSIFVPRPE
Chain of Insulin-like growth factor 1 receptor (Homo sapiens) (P08069 741-1367 limits assumed): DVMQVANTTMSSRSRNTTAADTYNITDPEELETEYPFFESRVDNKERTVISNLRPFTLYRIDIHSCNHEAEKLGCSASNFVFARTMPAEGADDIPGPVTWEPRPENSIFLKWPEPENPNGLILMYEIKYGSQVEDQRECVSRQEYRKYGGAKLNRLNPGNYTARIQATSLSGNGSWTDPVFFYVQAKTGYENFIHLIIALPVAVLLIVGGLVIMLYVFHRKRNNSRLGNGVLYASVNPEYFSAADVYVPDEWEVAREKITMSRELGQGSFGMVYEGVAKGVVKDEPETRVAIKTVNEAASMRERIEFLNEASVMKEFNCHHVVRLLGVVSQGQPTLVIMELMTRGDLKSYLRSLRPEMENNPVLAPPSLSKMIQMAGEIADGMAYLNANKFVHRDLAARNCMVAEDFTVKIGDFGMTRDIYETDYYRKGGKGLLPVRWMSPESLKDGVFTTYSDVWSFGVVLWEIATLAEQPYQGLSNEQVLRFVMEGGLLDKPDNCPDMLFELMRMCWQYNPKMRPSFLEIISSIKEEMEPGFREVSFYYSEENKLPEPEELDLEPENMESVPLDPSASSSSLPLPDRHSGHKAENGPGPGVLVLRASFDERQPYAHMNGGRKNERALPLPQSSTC
Chain of Mitogen-activated protein kinase 14 (Homo sapiens) (Q16539 whole entry): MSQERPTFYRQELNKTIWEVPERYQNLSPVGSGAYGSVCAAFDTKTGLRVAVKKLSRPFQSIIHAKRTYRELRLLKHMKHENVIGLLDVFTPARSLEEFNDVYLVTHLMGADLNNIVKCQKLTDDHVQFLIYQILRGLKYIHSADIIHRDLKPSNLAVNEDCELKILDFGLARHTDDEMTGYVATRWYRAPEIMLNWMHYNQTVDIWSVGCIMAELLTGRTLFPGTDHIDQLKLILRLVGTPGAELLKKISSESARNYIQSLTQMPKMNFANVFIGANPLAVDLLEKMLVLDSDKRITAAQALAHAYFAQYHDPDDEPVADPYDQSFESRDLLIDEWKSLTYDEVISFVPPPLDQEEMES

For `O=C(Nc1cccc(-n2ccc3c(NC(=O)c4ccccc4)nccc32)c1)c1ccc(N2CCOCC2)c(C(F)(F)F)c1`, the inhibition [1] was 7%, the inhibition [2] was 2% and the inhibition [3] was 9%. For the same compound, the inhibition [4] was -1%, the inhibition [5] was 10% and the inhibition [6] was 8%. The inhibition [7] was -1%, the inhibition [8] was 19% and the inhibition [9] was 16%. The inhibition [10] was -2%, the inhibition [11] was -5% and the inhibition [12] was -8%. It also gave a pIC50 [13] of 7.02, an inhibition [14] of 90% and an inhibition [15] of -9%. For the same compound, the inhibition [16] was 10%, the inhibition [17] was 17% and the inhibition [18] was 14%. It also gave an inhibition [19] of 25%, an inhibition [20] of 8% and an inhibition [21] of 23%. The inhibition [22] was 2%, the inhibition [23] was 4% and the inhibition [24] was 18%. For the same compound, the inhibition [25] was 12%, the inhibition [26] was 4% and the inhibition [27] was 11%. It also gave an inhibition [28] of 10%, an inhibition [29] of 7% and an inhibition [30] of -1%. For the same compound, the inhibition [31] was 41%, the inhibition [32] was 33% and the inhibition [33] was 3%. The inhibition [34] was -1%, the inhibition [35] was 6% and the inhibition [36] was -10%. It also gave an inhibition [37] of 44%, a pIC50 [38] of 5.98 and an inhibition [39] of 21%. For the same compound, the inhibition [40] was 6%, the inhibition [41] was 9% and the inhibition [42] was 16%. For the same compound, the inhibition [43] was 57%, the inhibition [44] was 71% and the inhibition [45] was 1%. The inhibition [46] was 23%.
